Test results from ChEMBL document CHEMBL5154652, “Design, synthesis and anti-hepatocellular carcinoma activity of 3-arylisoquinoline alkaloids” (Eur J Med Chem, 2022).
Activity calls are given as the source filed them. No cut-off for these calls is given here.

Key:
Huh-7 [1] = assay: Antiproliferative activity against human Huh-7 cells after 72 hrs by MTT assay; type: functional, cell-based; details: Huh-7, 72 h
HT-29 = assay: Antiproliferative activity against human HT-29 cells after 72 hrs by MTT assay; type: functional, cell-based; details: HT-29, 72 h
RKO = assay: Antiproliferative activity against human RKO cells after 72 hrs by MTT assay; type: functional, cell-based
SW480 = assay: Antiproliferative activity against human SW480 cells after 72 hrs by MTT assay; type: functional, cell-based; details: SW480, 72 h
HGC-27 = assay: Antiproliferative activity against human HGC-27 cells after 72 hrs by MTT assay; type: functional, cell-based; details: HGC-27, 72 h
SGC-7901 = assay: Antiproliferative activity against human SGC-7901 cells after 72 hrs by MTT assay; type: functional, cell-based; details: SGC-7901, 72 h
BGC-823 = assay: Antiproliferative activity against human BGC-823 cells after 72 hrs by MTT assay; type: functional, cell-based; details: BGC-823, 72 h
A549 = assay: Antiproliferative activity against human A549 cells after 72 hrs by MTT assay; type: functional, cell-based; details: A549, 72 h
U-251 = assay: Antiproliferative activity against human U-251 cells after 72 hrs by MTT assay; type: functional, cell-based; details: U-251, 72 h
HL-60 = assay: Antiproliferative activity against human HL-60 cells after 72 hrs by MTT assay; type: functional, cell-based; details: HL-60, 72 h
[2] = biological target: DNA topoisomerase 1 (Homo sapiens) (UniProt P11387); assay: Inhibition of DNA topoisomerase 1 (unknown origin) at 25 to 50 uM measured by agar gel electrophoresis relative to control; details: dose 25-50 µM
DNA topoisomerase 1 (Homo sapiens), sequence (P11387 whole entry): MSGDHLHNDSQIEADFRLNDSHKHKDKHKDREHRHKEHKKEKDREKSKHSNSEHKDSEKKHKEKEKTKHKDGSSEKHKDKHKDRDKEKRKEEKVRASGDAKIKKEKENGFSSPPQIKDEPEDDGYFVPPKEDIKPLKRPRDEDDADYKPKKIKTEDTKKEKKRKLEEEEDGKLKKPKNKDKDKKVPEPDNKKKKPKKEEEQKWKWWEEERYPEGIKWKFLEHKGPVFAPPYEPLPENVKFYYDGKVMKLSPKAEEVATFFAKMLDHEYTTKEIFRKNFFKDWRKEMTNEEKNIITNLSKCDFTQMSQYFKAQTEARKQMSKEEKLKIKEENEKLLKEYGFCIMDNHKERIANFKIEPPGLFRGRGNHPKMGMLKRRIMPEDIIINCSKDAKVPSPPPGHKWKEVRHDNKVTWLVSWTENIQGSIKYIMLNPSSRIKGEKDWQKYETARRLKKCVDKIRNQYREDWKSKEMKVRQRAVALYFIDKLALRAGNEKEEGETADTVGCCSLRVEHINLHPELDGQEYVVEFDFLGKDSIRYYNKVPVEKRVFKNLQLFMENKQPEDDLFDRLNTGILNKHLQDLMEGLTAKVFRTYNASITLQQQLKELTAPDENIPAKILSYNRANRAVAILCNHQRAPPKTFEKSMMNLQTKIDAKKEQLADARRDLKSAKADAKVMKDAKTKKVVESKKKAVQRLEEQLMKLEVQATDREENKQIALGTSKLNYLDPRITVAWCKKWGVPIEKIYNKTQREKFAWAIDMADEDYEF

[3] = biological target: DNA topoisomerase 2-alpha (Homo sapiens) (UniProt P11388); assay: Inhibition of DNA topoisomerase 2 (unknown origin) at 25 uM measured by agar gel electrophoresis relative to control
DNA topoisomerase 2-alpha (Homo sapiens), sequence (P11388 whole entry): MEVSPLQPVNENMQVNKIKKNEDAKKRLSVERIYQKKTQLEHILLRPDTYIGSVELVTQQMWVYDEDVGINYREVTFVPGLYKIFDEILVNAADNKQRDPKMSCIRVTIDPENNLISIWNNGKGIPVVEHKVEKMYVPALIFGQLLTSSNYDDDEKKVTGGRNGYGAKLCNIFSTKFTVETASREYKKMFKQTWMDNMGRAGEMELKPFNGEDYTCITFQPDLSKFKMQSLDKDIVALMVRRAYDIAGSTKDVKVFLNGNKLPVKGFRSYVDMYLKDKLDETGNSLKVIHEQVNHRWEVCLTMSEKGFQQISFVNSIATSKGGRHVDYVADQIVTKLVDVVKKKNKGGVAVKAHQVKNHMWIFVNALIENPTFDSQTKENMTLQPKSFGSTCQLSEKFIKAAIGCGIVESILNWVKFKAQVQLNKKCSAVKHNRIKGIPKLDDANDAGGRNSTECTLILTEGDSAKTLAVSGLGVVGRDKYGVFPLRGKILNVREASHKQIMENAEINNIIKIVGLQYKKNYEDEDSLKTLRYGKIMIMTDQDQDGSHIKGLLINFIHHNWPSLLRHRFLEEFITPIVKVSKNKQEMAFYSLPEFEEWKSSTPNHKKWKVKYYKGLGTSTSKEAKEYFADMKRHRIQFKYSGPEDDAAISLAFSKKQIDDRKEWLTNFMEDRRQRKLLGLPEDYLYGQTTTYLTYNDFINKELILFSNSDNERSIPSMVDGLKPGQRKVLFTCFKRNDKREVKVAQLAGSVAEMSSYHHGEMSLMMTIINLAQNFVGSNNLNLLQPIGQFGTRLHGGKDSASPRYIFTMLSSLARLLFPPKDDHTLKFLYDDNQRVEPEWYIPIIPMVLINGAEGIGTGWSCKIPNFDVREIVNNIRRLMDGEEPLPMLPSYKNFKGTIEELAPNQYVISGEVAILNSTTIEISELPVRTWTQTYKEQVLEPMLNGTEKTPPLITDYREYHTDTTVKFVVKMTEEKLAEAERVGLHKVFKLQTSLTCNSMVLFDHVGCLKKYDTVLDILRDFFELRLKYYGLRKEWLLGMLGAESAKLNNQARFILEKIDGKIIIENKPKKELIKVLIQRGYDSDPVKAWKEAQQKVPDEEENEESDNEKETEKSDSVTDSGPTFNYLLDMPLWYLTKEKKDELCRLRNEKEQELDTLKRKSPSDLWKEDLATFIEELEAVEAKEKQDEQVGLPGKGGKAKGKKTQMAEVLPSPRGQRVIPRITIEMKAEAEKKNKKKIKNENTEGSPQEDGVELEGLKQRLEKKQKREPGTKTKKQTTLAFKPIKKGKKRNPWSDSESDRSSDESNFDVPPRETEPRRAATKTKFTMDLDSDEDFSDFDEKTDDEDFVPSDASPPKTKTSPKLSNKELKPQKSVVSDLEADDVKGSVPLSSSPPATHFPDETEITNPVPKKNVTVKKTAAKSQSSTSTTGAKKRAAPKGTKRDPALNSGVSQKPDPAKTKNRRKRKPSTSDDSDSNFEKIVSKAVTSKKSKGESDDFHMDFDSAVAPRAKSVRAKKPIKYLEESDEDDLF

[4] = Genotoxicity in human Huh-7 cells assessed as induction of DNA damage at 20 uM by comet assay; type: toxicity, cell-based; details: huh-7, 20 µM
Huh-7 [5] = assay: Anticlonogenic activity in human Huh-7 cells at 2 to 8 uM measured by colony formation assay; type: functional, cell-based; details: dose 2-8 µM
HCCLM9 [6] = assay: Anticlonogenic activity in human HCCLM9 cells at 1.25 to 5 uM measured by colony formation assay; type: functional, cell-based; details: dose 1.25-5 µM
Huh-7 [7] = assay: Antiproliferative activity against human Huh-7 cells at 2 to 8 uM after 24 hrs by EdU incorporation assay; type: functional, cell-based; details: dose 2-8 µM
Huh-7 [8] = assay: Inhibition of cell migration in human Huh-7 cells at 2 to 8 uM after 24 hrs by transwell assay; type: functional, cell-based; details: dose 2-8 µM
HCCLM9 [9] = assay: Inhibition of cell migration in human HCCLM9 cells at 1.25 to 5 uM after 24 hrs by transwell assay; type: functional, cell-based; details: dose 1.25-5 µM
Huh-7 [10] = assay: Inhibition of cell invasion in human Huh-7 cells at 2 to 8 uM after 24 hrs; type: functional, cell-based; details: dose 2-8 µM
Huh-7 [11] = assay: Inhibition of MMP-9 expression in human Huh-7 cells at 5 to 20 uM measured by western blot analysis; type: functional, cell-based; details: dose 5-20 µM
Huh-7 [12] = assay: Induction of cell cycle arrest in human Huh-7 cells assessed as decrease in cell accumulation at S phase at 5 to 20 uM measured after 48 hrs by flow cytometry analysis; type: functional, cell-based; details: dose 5-20 µM
Huh-7 [13] = assay: Induction of cell cycle arrest in human Huh-7 cells assessed as decrease in cell accumulation at G0/G1 phase at 5 to 20 uM measured after 48 hrs by flow cytometry analysis; type: functional, cell-based; details: dose 5-20 µM
Huh-7 [14] = assay: Induction of cell cycle arrest in human Huh-7 cells assessed as increase in cell accumulation at G2/M phase at 5 to 20 uM measured after 48 hrs by flow cytometry analysis; type: functional, cell-based; details: dose 5-20 µM
Huh-7 [15] = assay: Induction of apoptosis in human Huh-7 cells at 5 to 20 uM measured by Hoechst staining method; type: functional, cell-based; details: dose 5-20 µM
HCCLM9 [16] = assay: Induction of apoptosis in human HCCLM9 cells at 3.5 to 14 uM measured by Hoechst staining method; type: functional, cell-based; details: dose 3.5-14 µM
Huh-7 [17] = assay: Induction of apoptosis in human Huh-7 cells at 5 to 20 uM measured by Annexin V /propidium iodide staining method; type: functional, cell-based; details: dose 5-20 µM
HCCLM9 [18] = assay: Induction of mitochondrial dysfunction in human HCCLM9 cells assessed as decrease in MMP levels at 5 to 20 uM; type: functional, cell-based; details: dose 5-20 µM
Huh-7 [19] = assay: Induction of apoptosis in human Huh-7 cells assessed as increase in Bax expression at 5 to 20 uM; type: functional, cell-based; details: dose 5-20 µM
Huh-7 [20] = assay: Induction of apoptosis in human Huh-7 cells assessed as increase in cleaved caspase-9 expression at 5 to 20 uM; type: functional, cell-based; details: dose 5-20 µM
HCCLM9 [21] = assay: Induction of apoptosis in human HCCLM9 cells assessed as reduction in Bcl-2 expression at 3.75 to 15 uM; type: functional, cell-based; details: dose 3.75-15 µM
HCCLM9 [22] = assay: Induction of apoptosis in human HCCLM9 cells assessed as increase in Bax expression at 3.75 to 15 uM; type: functional, cell-based; details: dose 3.75-15 µM
HCCLM9 [23] = assay: Induction of apoptosis in human HCCLM9 cells assessed as increase in cytochrome C expression at 3.75 to 15 uM; type: functional, cell-based; details: dose 3.75-15 µM
HCCLM9 [24] = assay: Induction of apoptosis in human HCCLM9 cells assessed as increase in cleaved caspase-9 expression at 3.75 to 15 uM; type: functional, cell-based; details: dose 3.75-15 µM
Huh-7 [25] = assay: Induction of mitochondrial apoptosis in human Huh-7 cells assessed as inhibition of p-Akt levels at 5 to 20 uM measured after 48 hrs by Western blot analysis; type: functional, cell-based; details: dose 5-20 µM
Huh-7 [26] = assay: Induction of mitochondrial apoptosis in human Huh-7 cells assessed as inhibition of p-PI3K levels at 5 to 20 uM measured after 48 hrs by Western blot analysis; type: functional, cell-based; details: dose 5-20 µM
Huh-7 [27] = assay: Induction of mitochondrial apoptosis in human Huh-7 cells assessed as inhibition of p-mTOR levels at 5 to 20 uM measured after 48 hrs by Western blot analysis; type: functional, cell-based; details: dose 5-20 µM
HCCLM9 [28] = assay: Induction of mitochondrial apoptosis in human HCCLM9 cells assessed as inhibition of p-Akt levels at 3.75 to 15 uM measured after 48 hrs by Western blot analysis; type: functional, cell-based; details: dose 3.75-15 µM
HCCLM9 [29] = assay: Induction of mitochondrial apoptosis in human HCCLM9 cells assessed as inhibition of p-PI3K levels at 3.75 to 15 uM measured after 48 hrs by Western blot analysis; type: functional, cell-based; details: dose 3.75-15 µM
HCCLM9 [30] = assay: Induction of mitochondrial apoptosis in human HCCLM9 cells assessed as inhibition of p-mTOR levels at 3.75 to 15 uM measured after 48 hrs by Western blot analysis; type: functional, cell-based; details: dose 3.75-15 µM
[31] = Tmax in male Sprague-Dawley rat at 100 mg/kg, ip; type: ADME, organism-based; details: in vivo
[32] = Cmax in male Sprague-Dawley rat at 100 mg/kg, ip; type: ADME, organism-based; parameters: dose 100 mg/kg, route ip; details: in vivo
[33] = AUC (0 to t) in male Sprague-Dawley rat at 100 mg/kg, ip; type: ADME, organism-based; parameters: dose 100 mg/kg, route ip; details: in vivo
[34] = Observed apparent oral clearance in male Sprague-Dawley rat at 100 mg/kg, ip; type: ADME, organism-based; details: in vivo
[35] = MRT (0 to t)in male Sprague-Dawley rat at 100 mg/kg, ip; type: ADME, organism-based; details: in vivo
HCCLM9 [36] = assay: Antitumor activity against human HCCLM9 cells xenografted in male BALB/c nude mouse assessed as inhibition of tumor growth at 15 mg/kg, iv administered once a day for 21 days; type: functional, organism-based; details: time 21.0 day

CNCc1cc2c(cc1-c1cc3ccc4c(c3cn1)OCO4)OCO2
IC50 (Huh-7 [1]): 9.82 µM | IC50 (HT-29): 31 µM | IC50 (RKO): 47.8 µM | IC50 (SW480): 9.04 µM | IC50 (HGC-27): 34.2 µM | IC50 (SGC-7901): 30.8 µM | IC50 (BGC-823): 17.7 µM | IC50 (A549): 36.3 µM | IC50 (U-251): 13.5 µM | IC50 (HL-60): 59.1 µM | inhibition [2]: Active | inhibition [3]: Active | Activity [4]: Non-Toxic | Activity (Huh-7 [5]): Active | Activity (HCCLM9 [6]): Active | Activity (Huh-7 [7]): Active | inhibition (Huh-7 [8]): Active | inhibition (HCCLM9 [9]): Active | inhibition (Huh-7 [10]): Active | inhibition (Huh-7 [11]): Active | Activity (Huh-7 [12]): Active | Activity (Huh-7 [13]): Active | Activity (Huh-7 [14]): Active | Activity (Huh-7 [15]): Active | Activity (HCCLM9 [16]): Active | Activity (Huh-7 [17]): Active | Activity (HCCLM9 [18]): Active | Activity (Huh-7 [19]): Active | Activity (Huh-7 [20]): Active | Activity (HCCLM9 [21]): Active | Activity (HCCLM9 [22]): Active | Activity (HCCLM9 [23]): Active | Activity (HCCLM9 [24]): Active | Activity (Huh-7 [25]): Active | Activity (Huh-7 [26]): Active | Activity (Huh-7 [27]): Active | Activity (HCCLM9 [28]): Active | Activity (HCCLM9 [29]): Active | Activity (HCCLM9 [30]): Active | Tmax [31]: 1 h | Cmax [32]: 8.9 µg/mL | AUC(0-t) [33]: 31.6 µg·h/mL | CL/F [34]: 20.42 (mg)/(ug/ml)/hr | MRT last [35]: 1 h | Activity (HCCLM9 [36]): Active
